In the supplement of paper PMC10307832:

Assays:
Assay in all cases: relative viability (nuclei count vs DMSO), 5 days (fraction); higher = more cells survive
Obatoclax + Dasatinib = compound: COC1=CC(c2cc3ccccc3[nH]2)=N/C1=C\c1[nH]c(C)cc1C [Obatoclax] + Cc1nc(Nc2ncc(C(=O)Nc3c(C)cccc3Cl)s2)cc(N2CCN(CCO)CC2)n1 [Dasatinib] (partner 0.075 µM)
Procedure, shortened: (§1)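 Medians of duplicate plates are given as relative viability. That measure is the nuclei count in treated wells divided by the count in vehicle wells. Counts were taken on 4× images of lung cancer cell lines in 1536-well plates, 5 days after pin-tool dosing the day after seeding with one drug alone or a fixed anchor-drug dose plus five library-drug doses (not always all listed) in √10 steps.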

Obatoclax + Trametinib = compound: COC1=CC(c2cc3ccccc3[nH]2)=N/C1=C\c1[nH]c(C)cc1C [Obatoclax] + CC(=O)Nc1cccc(-n2c(=O)n(C3CC3)c(=O)c3c(Nc4ccc(I)cc4F)n(C)c(=O)c(C)c32)c1 [Trametinib] (partner 0.02 µM)
Procedure, shortened: as §1

Obatoclax + AZD7762 = compound: COC1=CC(c2cc3ccccc3[nH]2)=N/C1=C\c1[nH]c(C)cc1C [Obatoclax] + NC(=O)Nc1cc(-c2cccc(F)c2)sc1C(=O)N[C@H]1CCCNC1 [AZD7762] (partner 0.2 µM)
Procedure, shortened: as §1

Bortezomib + Lapatinib = compound: CC(C)C[C@H](NC(=O)[C@H](Cc1ccccc1)NC(=O)c1cnccn1)B(O)O [Bortezomib] + CS(=O)(=O)CCNCc1ccc(-c2ccc3ncnc(Nc4ccc(OCc5cccc(F)c5)c(Cl)c4)c3c2)o1 [Lapatinib] (partner 2 µM)
Procedure, shortened: as §1

Cell Line | relative viability (Obatoclax + Dasatinib; first compound 0.01 µM) | relative viability (Obatoclax + Dasatinib; first compound 0.03162 µM) | relative viability (Obatoclax + Dasatinib; first compound 0.1 µM) | relative viability (Obatoclax + Dasatinib; first compound 0.3162 µM) | relative viability (Obatoclax + Dasatinib; first compound 1 µM) | relative viability (Obatoclax + Trametinib; first compound 0.01 µM) | relative viability (Obatoclax + Trametinib; first compound 0.03162 µM) | relative viability (Obatoclax + Trametinib; first compound 0.1 µM) | relative viability (Obatoclax + Trametinib; first compound 0.3162 µM) | relative viability (Obatoclax + Trametinib; first compound 1 µM) | relative viability (Obatoclax + AZD7762; first compound 0.01 µM) | relative viability (Obatoclax + AZD7762; first compound 0.03162 µM) | relative viability (Obatoclax + AZD7762; first compound 0.1 µM) | relative viability (Obatoclax + AZD7762; first compound 0.3162 µM) | relative viability (Obatoclax + AZD7762; first compound 1 µM) | relative viability (Bortezomib + Lapatinib; first compound 0.0002 µM) | relative viability (Bortezomib + Lapatinib; first compound 0.000632 µM) | relative viability (Bortezomib + Lapatinib; first compound 0.002 µM) | relative viability (Bortezomib + Lapatinib; first compound 0.006325 µM) | relative viability (Bortezomib + Lapatinib; first compound 0.02 µM)
NCI-H1651 | 0.563 | 0.376 | 0.372 | 0.293 | 0.187 | 0.847 | 0.811 | 0.846 | 0.845 | 0.836 | 0.488 | 0.4 | 0.421 | 0.431 | 0.439 | 0.709 | 0.74 | 0.301 | 0.128 | 0.103
NCI-H1666 | 0.819 | 0.809 | 0.727 | 0.496 | 0.418 | 0.753 | 0.849 | 0.949 | 0.805 | 0.637 | 0.959 | 0.823 | 0.789 | 0.815 | 0.581 | 0.611 | 0.883 | 0.841 | 0.194 | 0.187
NCI-H1734 | 0.493 | 0.287 | 0.427 | 0.375 | 0.2 | 0.636 | 0.744 | 0.688 | 0.681 | 0.689 | 0.513 | 0.499 | 0.456 | 0.472 | 0.238 | 0.977 | 0.99 | 1.32 | 0.21 | 0.112
NCI-H1755 | 0.425 | 0.402 | 0.335 | 0.44 | 0.397 | 0.673 | 0.769 | 0.77 | 0.752 | 0.799 | 0.387 | 0.468 | 0.381 | 0.457 | 0.423 | 0.991 | 0.853 | 1.04 | 0.48 | 0.155
NCI-H1792 | 0.867 | 0.8 | – | 0.72 | 0.962 | 0.365 | 0.302 | 0.417 | 0.509 | 0.411 | 0.732 | 0.482 | 0.513 | 0.527 | 0.213 | 0.797 | 0.862 | 0.967 | 0.929 | 0.797
NCI-H1793 | 0.404 | 0.405 | 0.321 | 0.395 | 0.418 | 0.341 | 0.458 | 0.445 | 0.447 | 0.42 | 0.484 | 0.419 | 0.499 | 0.368 | 0.209 | 0.683 | 0.624 | 0.868 | 0.466 | 0.154
NCI-H1915 | 0.314 | 0.271 | 0.318 | 0.329 | 0.282 | 0.296 | 0.285 | 0.328 | 0.284 | 0.315 | 0.697 | 0.573 | 0.648 | 0.752 | 0.562 | 0.94 | 0.944 | 0.932 | 0.973 | 0.0577
NCI-H1944 | 0.206 | 0.198 | 0.198 | 0.242 | 0.223 | 0.407 | 0.391 | 0.428 | 0.392 | 0.398 | 0.481 | 0.695 | 0.492 | 0.551 | 0.494 | 0.883 | 0.774 | 0.929 | 0.809 | 0.328
NCI-H1975 | 0.439 | 0.389 | – | 0.351 | 0.153 | 0.407 | 0.32 | 0.213 | 0.352 | 0.206 | 0.744 | 0.654 | – | 0.728 | 0.756 | 0.893 | 0.839 | 0.18 | 0.105 | 0.14
NCI-H1993 | 0.616 | 0.549 | 0.748 | 0.499 | 0.395 | 0.553 | 0.632 | 0.574 | 0.462 | 0.72 | 0.769 | 0.789 | 0.898 | 0.818 | 0.536 | 0.69 | 0.77 | 0.935 | 0.51 | 0.497
NCI-H2085 | 0.256 | 0.205 | 0.508 | 0.256 | 0.226 | 0.671 | 0.598 | 0.582 | 0.405 | 0.377 | 0.932 | 0.991 | 0.952 | 0.621 | 0.299 | 0.725 | 0.759 | 0.727 | 0.382 | 0.231
NCI-H2087 | 0.837 | 0.747 | 0.723 | 0.361 | 0.135 | 0.2 | 0.204 | 0.22 | 0.145 | 0.122 | 1.19 | 1.37 | 1.15 | 1.21 | 0.9 | 0.897 | 0.951 | 0.541 | 0.114 | 0.0853
NCI-H2126 | 0.675 | 0.538 | 0.524 | 0.613 | 0.536 | 0.57 | 0.493 | 0.526 | 0.55 | 0.546 | 1.08 | 0.951 | 1.05 | 1.06 | 0.974 | 0.762 | 0.757 | 0.762 | 0.727 | 0.595
NCI-H2170 | 0.626 | 0.617 | 0.528 | 0.529 | 0.677 | 0.877 | 0.942 | 0.904 | 0.856 | 0.861 | 0.851 | 0.844 | 0.801 | 0.831 | 0.743 | 0.253 | 0.266 | 0.306 | 0.266 | 0.2
NCI-H2347 | 0.305 | 0.281 | – | 0.308 | 0.324 | 0.312 | 0.305 | 0.27 | 0.237 | 0.277 | 0.687 | 0.836 | 0.777 | 0.695 | 0.869 | 0.922 | 1.05 | 0.942 | 0.849 | 0.37
NCI-H2405 | 0.218 | 0.197 | – | 0.205 | 0.22 | 0.6 | 0.746 | – | 0.741 | 0.861 | 0.726 | 0.857 | – | 0.924 | 0.8 | 0.817 | – | 1.01 | 0.112 | 0.121
